From US11332452B2, “Pesticidal compositions and methods” (priority 2019, dated 2022)

Tests used:
Assay type in all cases: in vivo
[1] = test system: Beet Armyworm (Spodoptera exigua, LAPHEG); assay: Insecticidal test for beet armyworm (BAW), 128-well diet tray assay; conditions: 168 h, 50 μg/cm^2 of test compound on artificial diet, second instar larvae, 25° C., five to seven days, average of eight wells, read-out: BAW % Control (or Mortality) rating
Description: Insecticidal Test for Beet Armyworm (Spodoptera exigua, LAPHEG) (“BAW”)
(§1) Bioassays on beet armyworm (BAW; Spodoptera exigua: Lepidoptera) are conducted using a 128-well diet tray assay. One to five second instar BAW larvae are placed in each well (3 mL) of the diet tray that had been previously filled with 1 mL of artificial diet to which 50 μg/cm^2 of the test compound (dissolved in 50 μL of 90:10 acetone-water mixture) had been applied (to each of eight wells) and then allowed to dry. Trays are covered with a clear self-adhesive cover, vented to allow gas exchange, and held at 25° C., 14:10 light-dark for five to seven days. Percent mortality is recorded for the larvae in each well; activity in the eight wells is then averaged.

[2] = test system: Cabbage Looper (Trichloplusia Ni, TRIPNI); assay: Insecticidal test for cabbage looper (CL), 128-well diet tray assay; conditions: Trichoplusia ni, 168 h, read-out: CL % Control (or Mortality) rating
Description: Insecticidal Test for Cabbage Looper (Trichloplusia Ni, TRIPNI) (“CL”)
as §1, with “cabbage looper (CL; Trichloplusia ni:” for “beet armyworm (BAW; Spodoptera exigua:”, “CL” for “BAW”

[3] = test system: Yellow Fever Mosquito (Aedes aegypti, AEDSAE); assay: Insecticidal test for yellow fever mosquito (YFM), 96-well plate larval assay; conditions: from 4000 ppm DMSO master solution, diluted; about 1 day-old larvae; room temperature; scored after 3 days
Description: Insecticidal Test for Yellow Fever Mosquito (Aedes aegypti, AEDSAE) (“YFM”)
Master plates containing 400 μg of a molecule dissolved in 100 μL of dimethyl sulfoxide (DMSO) (equivalent to a 4000 ppm solution) are used. A master plate of assembled molecules contains 15 μL per well. To this plate, 135 μL of a 90:10 water/acetone mixture is added to each well. A robot (Biomek® NXP Laboratory Automation Workstation) is programmed to dispense 15 μL aspirations from the master plate into an empty 96-well shallow plate (“daughter” plate). There are 6 reps (“daughter” plates) created per master. The created “daughter” plates are then immediately infested with YFM larvae.
The day before plates are to be treated, mosquito eggs are placed in Millipore water containing liver powder to begin hatching (4 g. into 400 mL). After the “daughter” plates are created using the robot, they are infested with 220 μL of the liver powder/larval mosquito mixture (about 1 day-old larvae). After plates are infested with mosquito larvae, a non-evaporative lid is used to cover the plate to reduce drying. Plates are held at room temperature for 3 days prior to grading. After 3 days, each well is observed and scored based on mortality.

| Structure (SMILES) | mortality at 50 µg/cm2 [1] | mortality at 50 µg/cm2 [2] | YFM % Control (or Mortality) rating [3] |
| --- | --- | --- | --- |
| Cc1ccc(C(C)C)c(N2C(=O)CS/C2=N\C(=O)NCCc2ccc(NCC(=O)c3ccc(OC(F)(F)F)cc3)cc2)c1 [Compound A1, (Z)-1-(3-(2-isopropyl-5-methylphenyl)-4-oxothiazolidin-2-ylidene)-3-(4-((2-oxo-2-(4-(trifluoromethoxy)phenyl)ethyl)amino)phenethyl)urea] | 50 to 100% | 50 to 100% | A (80-100) |
| Cc1ccc(C(C)C)c(N2C(=O)CS/C2=N\C(=O)Nc2ccc(C(=O)NNc3ccc(OC(F)(F)F)cc3)cc2)c1 [Compound A2, (Z)-1-(3-(2-Isopropyl-5-methylphenyl)-4-oxothiazolidin-2-ylidene)-3-(4-(2-(4-(trifluoromethoxy)phenyl)hydrazine-1-carbonyl)phenyl)urea] | 50 to 100% | 50 to 100% | A (80-100) |
| Cc1ccc(OCC(F)(F)F)c(N2C(=O)CS/C2=N\C(=O)Nc2ccc(C(=O)NNc3ccc(OC(F)(F)F)cc3)cc2)c1 [Compound A3, (Z)-1-(3-(5-methyl-2-(2,2,2-trifluoroethoxy)phenyl)-4-oxothiazolidin-2-ylidene)-3-(4-(2-(4-(trifluoromethoxy)phenyl)hydrazine-1-carbonyl)phenyl)urea] | 50 to 100% | 50 to 100% | D (No activity noticed in this bioassay) |
| Cc1ccc(C(C)C)c(N2C(=O)CS/C2=N\C(=O)Nc2ccc(NNC(=O)c3ccc(OC(F)(F)F)cc3)cc2)c1 [Compound A4, (Z)-1-(3-(2-isopropyl-5-methylphenyl)-4-oxothiazolidin-2-ylidene)-3-(4-(2-(4-(trifluoromethoxy)benzoyl)hydrazinyl)phenyl)urea] | 50 to 100% | 50 to 100% | A (80-100) |
| Cc1ccc(OCC(F)(F)F)c(N2C(=O)CS/C2=N\C(=O)Nc2ccc(NNC(=O)c3ccc(OC(F)(F)F)cc3)cc2)c1 [Compound A5, (Z)-1-(3-(5-Methyl-2-(2,2,2-trifluoroethoxy)phenyl)-4-oxothiazolidin-2-ylidene)-3-(4-(2-(4-(trifluoromethoxy)benzoyl)hydrazinyl)phenyl)urea] | 0 to 50% | 0 to 50% | B (More than 0-Less than 80) |
| O=C(/N=C1\SCC(=O)N1c1cc(Cl)ccc1OCC(F)(F)F)Nc1ccc(NNC(=O)c2ccc(OC(F)(F)F)cc2)cc1 [Compound A6, (Z)-1-(3-(5-Chloro-2-(2,2,2-trifluoroethoxy)phenyl)-4-oxothiazolidin-2-ylidene)-3-(4-(2-(4-(trifluoromethoxy)benzoyl)hydrazinyl)phenyl)urea] | 0% | 0% | D (No activity noticed in this bioassay) |
| Cc1ccc(C(C)C)c(N2C(=O)CS/C2=N\C(=O)Nc2ccc(NC(=O)Nc3ccc(OC(F)(F)F)cc3)cc2)c1 [Compound A7, (Z)-1-(3-(2-isopropyl-5-methylphenyl)-4-oxothiazolidin-2-ylidene)-3-(4-(3-(4-(trifluoromethoxy)phenyl)ureido)phenyl)urea] | 50 to 100% | 50 to 100% | A (80-100) |
| Cc1ccc(C(C)C)c(N2C(=O)CS/C2=N\C(=O)NCCc2ccc(NC(=O)Nc3ccc(OC(F)(F)F)cc3)cc2)c1 [Compound A8, (Z)-1-(3-(2-isopropyl-5-methylphenyl)-4-oxothiazolidin-2-ylidene)-3-(4-(3-(4-(trifluoromethoxy)phenyl)ureido)phenethyl)urea] | 50 to 100% | 50 to 100% | A (80-100) |
| Cc1ccc(C(C)C)c(N2C(=O)CS/C2=N\C(=O)NCCc2ccc(NC(=O)Nc3ccc(C(F)(F)F)cc3)cc2)c1 [Compound A9, (Z)-1-(4-(2-(3-(3-(2-isopropyl-5-methylphenyl)-4-oxothiazolidin-2-ylidene)ureido)ethyl)phenyl)-3-(4-(trifluoromethyl)phenyl)urea] | 50 to 100% | 50 to 100% | A (80-100) |
| COc1ccc(N2C(=O)CS/C2=N\C(=O)NCCc2ccc(NC(=O)Nc3ccc(C(F)(F)F)cc3)cc2)c(C)c1 [Compound A10, (Z)-1-(4-(2-(3-(3-(4-Methoxy-2-methylphenyl)-4-oxothiazolidin-2-ylidene)ureido)ethyl)phenyl)-3-(4-(trifluoromethyl)phenyl)urea] | 50 to 100% | 50 to 100% | A (80-100) |
| CCc1cccc(C)c1N1C(=O)CS/C1=N\C(=O)NCCc1ccc(NC(=O)Nc2ccc(C(F)(F)F)cc2)cc1 [Compound A11, (Z)-1-(4-(2-(3-(3-(2-Ethyl-6-methylphenyl)-4-oxothiazolidin-2-ylidene)ureido)ethyl)phenyl)-3-(4-(trifluoromethyl)phenyl)urea] | 50 to 100% | 50 to 100% | A (80-100) |
| CC(C)c1ccccc1N1C(=O)CS/C1=N\C(=O)NCCc1ccc(NC(=O)Nc2ccc(C(F)(F)F)cc2)cc1 [Compound A12, (Z)-1-(4-(2-(3-(3-(2-Isopropylphenyl)-4-oxothiazolidin-2-ylidene)ureido)ethyl)phenyl)-3-(4-(trifluoromethyl)phenyl)urea] | 50 to 100% | 50 to 100% | A (80-100) |
| CC(C)c1ccc(Cl)cc1N1C(=O)CS/C1=N\C(=O)NCCc1ccc(NC(=O)Nc2ccc(C(F)(F)F)cc2)cc1 [Compound A13, (Z)-1-(4-(2-(3-(3-(5-Chloro-2-isopropylphenyl)-4-oxothiazolidin-2-ylidene)ureido)ethyl)phenyl)-3-(4-(trifluoromethyl)phenyl)urea] | 50 to 100% | 50 to 100% | A (80-100) |
| Cc1ccc(C(C)C)c(-n2ccs/c2=N\C(=O)NCCc2ccc(NC(=O)Nc3ccc(C(F)(F)F)cc3)cc2)c1 [Compound A14, (Z)-1-(4-(2-(3-(3-(2-Isopropyl-5-methylphenyl)thiazol-2(3H)-ylidene)ureido)ethyl)phenyl)-3-(4-(trifluoromethyl)phenyl)urea] | 50 to 100% | 50 to 100% | A (80-100) |
| CC(C)c1ccc(Cl)cc1N1C(=O)CS/C1=N\C(=O)NCCc1ccc(NC(=O)Nc2ccc(OC(F)(F)F)cc2)cc1 [Compound A15, (Z)-1-(4-(2-(3-(3-(5-Chloro-2-isopropylphenyl)-4-oxothiazolidin-2-ylidene)ureido)ethyl)phenyl)-3-(4-(trifluoromethoxy)phenyl)urea] | 50 to 100% | 50 to 100% | A (80-100) |
| CC(C)c1ccccc1N1C(=O)CS/C1=N\C(=O)NCCc1ccc(NC(=O)Nc2ccc(OC(F)(F)F)cc2)cc1 [Compound A16, (Z)-1-(4-(2-(3-(3-(2-Isopropylphenyl)-4-oxothiazolidin-2-ylidene)ureido)ethyl)phenyl)-3-(4-(trifluoromethoxy)phenyl)urea] | 50 to 100% | 50 to 100% | A (80-100) |
| O=C(/N=C1\SCC(=O)N1c1cc(Cl)ccc1OCC(F)(F)F)NCCc1ccc(NC(=O)Nc2ccc(OC(F)(F)F)cc2)cc1 [Compound A17, (Z)-1-(4-(2-(3-(3-(5-Chloro-2-(2,2,2-trifluoroethoxy)phenyl)-4-oxothiazolidin-2-ylidene)ureido)ethyl)phenyl)-3-(4-(trifluoromethoxy)phenyl)urea] | 50 to 100% | 50 to 100% | A (80-100) |
| CCc1cccc(C)c1N1C(=O)CS/C1=N\C(=O)NC(C)Cc1ccc(NC(=O)Nc2ccc(C(F)(F)F)cc2)cc1 (centres unmarked) [Compound A32, (Z)-1-(4-(2-(3-(3-(2-Ethyl-6-methylphenyl)-4-oxothiazolidin-2-ylidene)ureido)propyl)phenyl)-3-(4-(trifluoromethyl)phenyl)urea] | 50 to 100% | 50 to 100% |  |
